Where “and” joins values, the source holds several entries; their conditions need not be identical. Equal entries are not always repeated. Entries after “also recorded” stand apart in the source; their conditions may differ.
Experiments:
Type in all cases: in vivo, human
[1] = test system: peripheral T-cell lymphoma (PTCL); assay: Phase II clinical study of tipifarnib in relapsed or refractory PTCL patients; design: key to Response: PR: partial response; SD: stable disease; PD: progressive disease
Description: A Phase II clinical study of tipifarnib can be conducted with the primary objective being to assess the antitumor activity of tipifarnib, in terms of Objective Response Rate (ORR) in subjects with relapsed or refractory advanced peripheral T-cell lymphoma (PTCL). Determination of objective tumor response can be performed by the International Workshop Criteria (IWC) and/or measurable cutaneous disease according to the modified Severity Weighted Assessment Tool (mSWAT). Secondary objectives can include accessing the effect of tipifarnib on rate of progression-free survival (PFS) at 1 year, duration of response (DOR), overall survival (OS); and safety and tolerability of tipifarnib.
This Phase II study investigates the antitumor activity in terms of ORR of tipifarnib in subjects with PTCL. Up to 18 eligible subjects with advanced PTCL are enrolled. The total number of patients can be extended to 30.
Subjects receive tipifarnib administered at a starting dose of 900 mg, orally with food, twice a day (bid) for 7 days in alternating weeks (Days 1-7 and 15-21) in 28 day cycles. At the discretion of the investigator, the dose of tipifarnib can be increased to 1200 mg bid if the subject has not experienced dose limiting toxicities at the 900 mg dose level. Subjects who develop serious adverse events (SAE) or ≥grade 2 treatment-emergent adverse events (TEAE) that are deemed related to tipifarnib and lasting ≥14 days will not undergo dose escalation. Stepwise 300 mg dose reductions to control treatment-related, treatment-emergent toxicities are also allowed.
In the absence of unmanageable toxicities, subjects can continue to receive tipifarnib treatment until disease progression. If a complete response is observed, therapy with tipifarnib can be maintained for at least 6 months beyond the start of response.
Tumor assessments are performed at screening and at least once every approximately 8 weeks for 6 months (cycles 2, 4, 6) and once every approximately 12 weeks (cycles 9, 12, 15, etc.) thereafter, until disease progression, starting at the end of Cycle 2. Additional tumor assessments can be conducted if deemed necessary by the Investigator. Subjects who discontinue tipifarnib treatment for reasons other than disease progression must continue tumor assessments until disease progression, withdrawal of subject's consent to study
The study was an eighteen patient Phase II study with a Simon two-stage design (11+7). Two responses were required after the first eleven evaluable patients in order to proceed to second stage. Enrollment is to be extended to thirty patients if five responses are seen in the first stage.
The dose of 900 mg b.i.d. for seven days in alternate week dosing was amended during the first stage to 600 mg b.i.d. for seven days in alternate week dosing.
Formalin-fixed, paraffin-embedded (FFPE) samples were obtained from all subjects for the analysis of gene expression using RNA Seq and of single nucleotide variation (SNV, including SNPs and mutations) using next generation sequencing (NGS). Thirteen samples passed quality control (QC) for expression analysis. Sixteen samples passed quality control for SNV analysis.
This example describes a Phase 2 study (ClinicalTrials.gov Identifier: NCT02464228) designed to investigate the antitumor activity of tipifarnib in 18 patients with relapsed or refractory PTCL, and certain results of the study.
Primary outcome measures: Objective Response Rate (ORR) by the International Workshop Criteria (IWC) and/or measurable cutaneous disease according to the modified Severity Weighted Assessment Tool (mSWAT). Secondary outcome measures include the effect of tipifarnib on rate of progression-free survival (PFS) at 1 year, duration of response (DOR); and safety and tolerability of tipifarnib.
Study Design: oral tipifarnib 300 mg twice daily (bid) on days 1-21 of 28-day treatment cycles. A Simon two-stage design for ORR. […]

[2] = test system: newly diagnosed AML in elderly patients with poor risk AML; assay: CTEP-20 trial, Phase 2, tipifarnib, analysed by CXCL12 expression
Description: (§1) Previous clinical studies with tipifarnib were performed in newly diagnosed AML in elderly patients with poor risk AML (CTEP-20, Phase 2) or relapsed and refractory AML (INT-17, Phase 2). In these studies, patient selection was not based on genetic markers. Anecdotal evidence of tipifarnib single agent activity was reported.

[3] = test system: relapsed and refractory AML; assay: INT-17 trial, Phase 2, tipifarnib, analysed by CXCR4 expression; conditions: relapsed or refractory AML patients, highest quintile of CXCR4 expression
Description: as §1

[4] = Grade ≥3 drug-related TEAEs, % of pts

Cn1cncc1[C@@](N)(c1ccc(Cl)cc1)c1ccc2c(c1)c(-c1cccc(Cl)c1)cc(=O)n2C [tipifarnib]
Median overall PFS ([1]; 5th line, all subjects with NGS data, reference and variant CXCL12 3′ UTR): 53 days
HR (PFS) ([1]; CXCL12/CXCR4 ratio >0.200 versus ≤0.200, P=0.004): 0.22
anemia [1, 4]: 32%
febrile neutropenia [1, 4]: 32%
leukopenia [1, 4]: 47%
lymphopenia [1, 4]: 16%
neutropenia [1, 4]: 74%
thrombocytopenia [1, 4]: 58%
Safety and Tolerability ([1]; PTCL patients, overall statement): consistent with known safety profile; also recorded: generally well-tolerated
Response ([1]; Table 1, one line per subject 1-18, PTCL patients, 900 mg b.i.d. amended to 600 mg b.i.d., seven days in alternate weeks): PR (3×) and PD (11×) and SD (4×)
Response ([1]; Table 2, RNA Seq Experiment#1, one cell per patient (2002, 2004, 3002, 4001, 2001, 4004)): PD (3×) and SD (2×) and PR
Response ([1]; Table 3, RNA Seq Experiment#2, one cell per patient (2005, 2006, 4005, 4006, 4007, 6003, 2007)): PD (5×) and SD and PR
median duration of durable responses ([1]; cohort of PTCL patients of Example II): 11 months
median time to progression ([1]; five patients with tumor size reductions, associated with elevated CXCL12 expression (p<0.001)): > 6 mo
HR (PFS) ([1]; high versus low CXCL12 expression, FIG. 13A, p=0.0015): 0.22
Discontinuation for Progressive Disease ([1]; of 17 discontinuations): 16 n
mPFS ([1]; patients with CXCL12 3′ UTR SNV rs2839695, N=7, first time point (FIG. 4)): 48 days
median progression free survival (mPFS) ([1]; patients with CXCL12/CXCR4 ratio >0.200 (N=5)): 189 days
median progression free survival (mPFS) ([1]; patients with CXCL12/CXCR4 ratio ≤0.200 (N=7)): 51 days
mPFS ([1]; patients with CXCL12 reference 3′ UTR (8 patients), FIG. 12A): 133 days
mPFS ([1]; patients with CXCL12 rs2839695, N=7, later timepoint (FIG. 6)): 50 days
mPFS ([1]; patients with CXCL12 variant 3′ UTR (8 with rs2839695 and 1 novel variant), FIG. 12B): 34 days
mPFS ([1]; patients with no SNV in the 3′ UTR of CXCL12 (reference 3′ UTR), N=8, first time point (FIG. 4)): 189 days
mPFS ([1]; patients with no SNV in the 3′ UTR of CXCL12, N=8, later timepoint (FIG. 6)): 134 days
mPFS ([1]; subjects with high CXCL12 expression, FIG. 13A): 190 days
activity in KIR3DL2-expressing PTCL ([1]; subjects with high KIR3DL2 expression (e.g., over 1000)): no activity
mPFS ([1]; subjects with low CXCL12 expression, FIG. 13A): 49 days
mPFS ([2]; second CXCL12 expression tertile): 89 days
mPFS ([2]; third tertile (lowest level of CXCL12 expression)): 33 days
median progression free survival (mPFS) ([2]; treatment naïve elderly, frail AML patients, highest CXCL12 expression tertile): 431 days
median survival [3]: 182 days
